Legend:
[1] = molecular target: T1, casein kinase 1 epsilon (CK1 epsilon) (Homo sapiens, UniProt P49674); assay: Filter-plate assay of ATP-33P for CK1 epsilon inhibitors (phosphorylation of casein); format: biochemical; conditions: casein substrate, ATP-33P with 10 μM cold ATP, 2 hours at ambient temperature
T1 construct: Invitrogen Corporation (as an alternative)
Description: The capacity of the compounds of the invention to inhibit the phosphorylation of casein by casein kinase 1 epsilon and delta may be evaluated according to the procedure described in US 2005/0131012.
Filter-Plate Assay of ATP-^33P for the Screening of CK1 Epsilon Inhibitors:
The effect of the compounds on inhibition of the phosphorylation of casein by the enzyme casein kinase 1 epsilon (CK1 epsilon) is measured, using a casein assay with filtration of ATP-^33P in vitro.
Casein kinase 1 epsilon (0.58 mg/ml) is obtained via fermentation and purification processes performed according to methods that are well known to those skilled in the art, or may also be obtained from Invitrogen Corporation™ (human CK1 epsilon).
The compounds are tested at five different concentrations so as to generate IC50 values, i.e. the concentration at which a compound is capable of inhibiting the enzymatic activity by 50%, or alternatively the percentage of inhibition at a concentration of 10 micromolar.
“U”-bottomed Falcon plates are prepared by placing 5 μL of solutions of the compounds according to the invention at concentrations of 10, 1, 0.1, 0.01 or 0.001 μM in various wells. The solutions of the compounds according to the invention at these various concentrations are prepared by diluting in a test buffer (50 mM Tris, pH 7.5, […], 2 mM DTT and 1 mM EGTA) a stock solution in DMSO at a concentration of 10 mM. Next, 5 μL of dephosphorylated casein are added to a final concentration of 0.2 μg/μL, 20 μl of CK1 epsilon to a final concentration of 3 ng/μl, and 20 μl of ATP-^33P to a final concentration of 0.02 μCi/μl mixed with cold ATP (10 μM final—approximately 2×10^6 CPM per well). The final total test volume per well is equal to 50 μl.
The “U”-bottomed Falcon® test plate mentioned above is vortexed, and then incubated at ambient temperature for 2 hours. After 2 hours, the reaction is stopped by adding an ice-cold solution of 65 μl of ATP (2 mM) prepared in test buffer.
100 μl of the reaction mixture are then transferred from the “U”-bottomed Falcon® plate into Millipore® MAPH filter plates, preimpregnated with 25 μl of ice-cold 100% TCA. […]
The plates are left to dry overnight at ambient temperature. […] The radiation emitted by each well is then measured for 2 minutes in a Packard® Topcount NXT scintillation counter, in which the values of CPM/well are measured.
The percentage inhibition of the capacity of the enzyme to phosphorylate the substrate (casein) is determined for each concentration of compound tested. These inhibition data expressed as percentages are used to calculate the IC50 value for each compound compared with the controls.
The kinetic studies determined the KM value for ATP as being 21 μM in this test system.

T1 sequence (P49674 whole entry): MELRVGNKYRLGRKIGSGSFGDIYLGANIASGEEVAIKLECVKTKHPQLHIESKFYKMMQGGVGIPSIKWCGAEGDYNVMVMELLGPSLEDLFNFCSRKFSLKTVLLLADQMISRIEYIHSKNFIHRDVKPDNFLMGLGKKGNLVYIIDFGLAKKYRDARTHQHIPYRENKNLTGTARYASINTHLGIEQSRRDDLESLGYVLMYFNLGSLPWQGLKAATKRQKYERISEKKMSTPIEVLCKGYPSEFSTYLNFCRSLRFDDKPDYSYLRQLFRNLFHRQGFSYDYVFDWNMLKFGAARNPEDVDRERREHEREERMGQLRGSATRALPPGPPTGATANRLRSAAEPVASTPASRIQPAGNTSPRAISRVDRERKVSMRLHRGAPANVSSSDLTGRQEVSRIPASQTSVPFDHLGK

For Fc1ccc(-c2nc3ccc(N4CCC(N5CCCC5)CC4)nn3c2-c2ccnc3[nH]ccc23)cc1 [Compound 36, 2-(4-Fluorophenyl)-6-(4-pyrrolidin-1-ylpiperidin-1-yl)-3-(1H-pyrrolo[2,3-b]pyridin-4-yl)imidazo[1,2-b]pyridazine], the melting point was 261 to 264 °C and the IC50 [1] was 5 to 8 nM.

Source: patent US8546395B2, “6-cycloamino-3-(1H-pyrrolo[2,3-b]pyridin-4-yl)imidazo[1,2-b]pyridazine derivatives, preparation thereof and therapeutic use thereof” (Sanofi, priority 2008, dated 2013)
